In patent publication US9226499B2, “Protected antimicrobial compounds for high temperature applications” (Dow Global Technologies LLC, priority 2010, dated 2016):

Columns and labels:
[1] = Analysis of glutaraldehyde release after heat-aging; format: physicochemical; conditions: sterile deionized water, molar equivalent of 2000 ppm glutaraldehyde; initial and heat-aged at 55° C. for 2 h or 24 h
Procedure: Samples of the IPHA-adduct are analyzed for glutaraldehyde content. Samples are prepared in sterile deionized water at the molar equivalent of 2000 ppm glutaraldehyde. A standard of 500 ppm glutaraldehyde is also prepared. An initial measurement is taken just after sample preparation. Samples are then heat-aged at 55° C. for 2 h or 24 h and analyzed again. Glutaraldehyde concentration is measured directly via GC and after pre-column derivatization by HPLC.

T. thermophilus = test: Biocidal efficacy against thermophilic bacteria at 70° C., dilution to extinction; format: cell-based; conditions: equivalent of 100 ppm glutaraldehyde, after 5 days with re-challenging
Procedure: b. Thermophilic Bacteria. A 48-72 hour old culture of T. thermophilus is pelleted by centrifuging at 2000 g and the pellet resuspended in 10 times the culture volume of buffer (PBS or carbonate-buffered synthetic freshwater). The suspension is distributed into 10 mL aliquots in glass screw-cap tubes. Each tube is then treated with glutaraldehyde or an adduct and incubated at 70° C. At indicated timepoints, cell density in each tube is measured via dilution to extinction by serially diluting a sample and plating dilutions on solid media.

SMILES	Glutaraldehyde concentration after pre-column derivatization by HPLC [1]	Glutaraldehyde concentration measured directly via GC [1]	Control of bacterial levels after 5 days (T. thermophilus)
CC(C)/[N+]([O-])=C/CCC/C=[N+](\[O-])C(C)C [IPHA-adduct, N,N′-(pentane-1,5-diylidene)bis(propan-2-amineoxide)]	low levels of glutaraldehyde	No glutaraldehyde is detected	
O=CCCCC=O [glutaraldehyde]			fails to control bacterial levels
